Test results: article PMC5786306, “An AKAP-Lbc-RhoA interaction inhibitor promotes the translocation of aquaporin-2 to the plasma membrane of renal collecting duct principal cells” (PLoS ONE, 2018)

Tests used:
[1] = biological target: T1, GST-RhoA (F25N), GDP- or GTPγS-bound (Homo sapiens, UniProt P61586, F25N); assay: Isothermal titration calorimetry (ITC) with GST-RhoA; type: binding
T1 construct: made in house
Experimental: (§1) ITC measurements were essentially carried out as previously described. The stabilizing RhoA mutant F25N [41] was purified as a GST-RhoA fusion in its GDP-bound form (final gel filtration purification step in 20 mM HEPES, pH 7.5, 150 mM NaCl, 2 mM DTT, 50 μM GDP). In order to exchange GDP against GTPγS, GST-RhoA loaded with GDP was incubated for 20 min in ITC nucleotide exchange buffer (50 mM HEPES, pH 7.5, 20 mM EDTA) at 25°C followed by three dilution and concentration steps in Amicon tubes (10,000 MWCO) using ITC dialysis buffer (50 mM HEPES, pH 7.4, 150 mM NaCl, 5 mM MgCl2, 2 mM β-mercaptoethanol). The nucleotide-loading state was confirmed by HPLC. All proteins used in ITC measurements were dialyzed overnight against ITC dialysis buffer. Protein concentrations were determined with NanoDrop ND-1000. GDP or GTPγS (final concentration 2 mM) and DMSO (2%) were added to the proteins prior to the ITC measurements. Scaff10-8 was dissolved in the same buffer (including 2% DMSO and 2 mM GDP or GTPγS). ITC measurements were performed on a VP-ITC (GE Healthcare, München, DE) at 15°C. Titrations were conducted using 14.8 μM Scaff10-8 in the cell and 235 μM (GST control), 222 μM (GST-RhoA, GDP-bound) or 210 μM (GST-RhoA, GTPγS-bound) in the syringe. The cell was stirred at 351 rpm and a total of 27 x 10 μl injections were added to the cell, separated by 240 s of equilibration. The data were fitted using the Microcal Origin software (version 7.0) and a one-site binding model. We consistently observed a binding number close to N = 0.5 (RhoA/Scaff10-8). This observation may be due to the binding of two molecules of Scaff10-8 per one molecule of GST-RhoA for both the GDP-bound and GTPγS-bound form of GST-RhoA, or due to some inaccuracy in the determination of protein or compound concentrations. The data were thus fitted using a fixed binding number of N = 0.5.

GST = GST (Schistosoma japonicum, UniProt P08515); assay: ITC control with GST alone; type: binding
Chain of GST (P08515 whole entry): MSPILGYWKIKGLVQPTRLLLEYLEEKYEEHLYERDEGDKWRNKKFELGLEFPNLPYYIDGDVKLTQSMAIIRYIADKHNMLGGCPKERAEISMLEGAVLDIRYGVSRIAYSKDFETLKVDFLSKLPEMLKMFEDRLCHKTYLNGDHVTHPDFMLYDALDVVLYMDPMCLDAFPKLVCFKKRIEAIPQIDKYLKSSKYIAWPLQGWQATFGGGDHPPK
Experimental: as §1, with “The data were fitted using the Microcal Origin software (version 7.0) and a one-site binding model. We consistently observed a binding number close to N = 0.5 (RhoA/Scaff10-8). This observation may be due to the binding of two molecules of Scaff10-8 per one molecule of GST-RhoA for both the GDP-bound and GTPγS-bound form of GST-RhoA, or due to some inaccuracy in the determination of protein or compound concentrations. The data were thus fitted using a fixed binding number of N = 0.5.” left out

His6-GST fusion protein = His6-GST fusion protein (Schistosoma japonicum, UniProt P08515); assay: HTRF control assay with His6-GST fusion protein; type: binding; conditions: control for interference with tags or antibodies
Chain of His6-GST fusion protein (P08515 whole entry, the tested form may be a part): as the sequence (P08515 whole entry) above
Experimental: The assay was essentially carried out as described. Scaff10 derivatives were added to His6-AKAP-Lbc/DHPH protein (250 nM final concentration) in HTRF buffer (PBS; 4 mM MgCl2; 0.05% Tween 20) in 384 well plates (Proxiplate-384 Plus, white, #6008289; Perkin Elmer LAS, Rodgau, Germany). Concentrations of Scaff10 derivatives ranged between 1.56–200 μM (2% DMSO final concentration); HTRF buffer with 2% DMSO served as a control. GST-RhoA (30 nM final concentration) in HTRF buffer and anti-GST antibody coupled to terbium (donor) and anti-His6-tag antibody coupled to XL665 (acceptor) were added to all wells (final antibody concentration: 2 μg/ml). After 1 h incubation at room temperature in the dark, FRET signals were recorded at 620 and 665 nm using a Genios Pro plate reader (Tecan Austria GmbH, Grödig, AT) and the ratios of […] to 620 nm were calculated. Wells containing no compound were set to 100% interaction of AKAP-Lbc/DHPH with RhoA, wells containing GST-RhoA only (without His6-AKAP-Lbc/DHPH) were set to 0% interaction. To exclude any interference of the tags and/or antibodies with Scaff10 derivatives, a His6-GST fusion protein replaced the two tagged proteins in a control assay. Wells containing His6-GST fusion protein were set to 100% interaction of His6-GST, wells containing no fusion protein were set to 0% interaction.

MCD4 cells = assay: Uptake into cells by mass spectrometry; type: in vitro ADME, mouse; conditions: data not shown

T1 sequence (P61586 whole entry F25N): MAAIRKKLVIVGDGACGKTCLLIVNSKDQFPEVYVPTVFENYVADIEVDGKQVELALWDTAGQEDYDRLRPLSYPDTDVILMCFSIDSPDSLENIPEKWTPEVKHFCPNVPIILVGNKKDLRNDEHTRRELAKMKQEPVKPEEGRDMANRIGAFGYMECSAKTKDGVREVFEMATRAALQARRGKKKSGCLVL

COc1ccc(-c2coc3cc4oc(=O)c(CCC(=O)O)c(C)c4cc23)cc1 [Scaff10-8, 3-[3-(4-Methoxyphenyl)-5-methyl-7-oxo-furo[3,2-g]chromen-6-yl] propanoic acid]
KD for GST-RhoA loaded with GDP ([1]; 15°C, 2 mM GDP, fixed N = 0.5): 20 ± 1 µM
KD for GST-RhoA loaded with GTPγS ([1]; 15°C, 2 mM GTPγS, fixed N = 0.5): 38 ± 4 µM
binding number N (RhoA/Scaff10-8) ([1]; GDP- and GTPγS-bound forms): ~0.5
binding to GST control (GST): did not bind
interaction with His-GST fusion protein (His6-GST fusion protein): does not interact
uptake into cells (MCD4 cells): confirmed the uptake
